Results reported in ChEMBL document CHEMBL3102811, “Synthesis and anti-inflammatory activity of indole glucosinolates” (2014).

Tests used:
Type in all cases: functional
THP-1 [1] = assay: Antiinflammatory activity in PMA-treated human THP1 cells assessed as inhibition of LPS-induced TNFalpha secretion at 1 uM after 4 hrs by sandwich ELISA relative to control; conditions: THP-1, 4 h
THP-1 [2] = assay: Antiinflammatory activity in PMA-treated human THP1 cells assessed as LPS-induced TNFalpha secretion at 15 uM after 4 hrs by sandwich ELISA relative to control
THP-1 [3] = assay: Antiinflammatory activity in PMA-treated human THP1 cells assessed as inhibition of LPS-induced TNFalpha secretion at 15 uM after 4 hrs by sandwich ELISA relative to control; conditions: THP-1, 4 h
THP-1 [4] = assay: Antiinflammatory activity in PMA-treated human THP1 cells assessed as LPS-induced TNFalpha secretion at 10 uM after 4 hrs by sandwich ELISA relative to control
THP-1 [5] = assay: Antiinflammatory activity in PMA-treated human THP1 cells assessed as LPS-induced TNFalpha secretion at 1 uM after 4 hrs by sandwich ELISA relative to control
THP-1 [6] = assay: Antiinflammatory activity in PMA-treated human THP1 cells assessed as LPS-induced TNFalpha secretion at 0.10 uM after 4 hrs by sandwich ELISA relative to control
THP-1 [7] = assay: Antiinflammatory activity in PMA-treated human THP1 cells assessed as inhibition of LPS-induced TNFalpha secretion at 10 uM after 4 hrs by sandwich ELISA relative to control; conditions: THP-1, 4 h
THP-1 [8] = assay: Antiinflammatory activity in PMA-treated human THP1 cells assessed as LPS-induced TNFalpha secretion at 5 uM after 4 hrs by sandwich ELISA relative to control
THP-1 [9] = assay: Antiinflammatory activity in PMA-treated human THP1 cells assessed as inhibition of LPS-induced TNFalpha secretion at 0.5 uM after 4 hrs by sandwich ELISA relative to control; conditions: THP-1, 4 h
THP-1 [10] = assay: Antiinflammatory activity in PMA-treated human THP1 cells assessed as LPS-induced TNFalpha secretion at 0.5 uM after 4 hrs by sandwich ELISA relative to control
THP-1 [11] = assay: Antiinflammatory activity in PMA-treated human THP1 cells assessed as inhibition of LPS-induced TNFalpha secretion at >=10 uM after 4 hrs by sandwich ELISA relative to control

Structure (SMILES)	inhibition at 1 µM (THP-1 [1]) [%]	Activity (THP-1 [2]) [pg/mg]	inhibition at 15 µM (THP-1 [3]) [%]	Activity (THP-1 [4]) [pg/mg]	Activity (THP-1 [5]) [pg/mg]	Activity (THP-1 [6]) [pg/mg]	inhibition at 10 µM (THP-1 [7]) [%]	Activity (THP-1 [8]) [pg/mg]	inhibition at 0.5 µM (THP-1 [9]) [%]	Activity (THP-1 [10]) [pg/mg]	inhibition (INH) (THP-1 [11])
O=S(=O)([O-])O/N=C(\Cc1c[nH]c2ccccc12)S[C@@H]1O[C@H](CO)[C@@H](O)[C@H](O)[C@H]1O.[K+]	≥ 24	136.79	54	158.94	196.65	215.57	–	–	–	–	–
COc1cccc2[nH]cc(C/C(=N\OS(=O)(=O)[O-])S[C@@H]3O[C@H](CO)[C@@H](O)[C@H](O)[C@H]3O)c12.[K+]	24	135.01	46	146.53	187.45	214.36	41	–	–	–	–
Oc1cc(O)c2c(c1)OC(c1ccc(O)c(O)c1)C(O)C2 (centres undefined) [CATECHIN]	–	255.94	48	–	–	–	–	282.65	37	303.98	–
COn1cc(C/C(=N\OS(=O)(=O)[O-])S[C@@H]2O[C@H](CO)[C@@H](O)[C@H](O)[C@H]2O)c2ccccc21.[K+]	≥ 24	169.06	–	181.1	228.9	251.69	–	–	–	–	>=32%
